# Where “and” joins values, the source holds several entries; their conditions need not be identical. Identical values can stand only once. After the bases stand the sugars from the 5' end (letter, count) and the backbone: PS all phosphorothioate, else s phosphorothioate and o phosphodiester by linkage. Methylation of C is not given here. e = 2'-O-(2-methoxyethyl) (MOE); k = constrained ethyl (cEt); d = 2'-deoxy (DNA)
# Target: IRF4
# Settings: ASO
Sequence,"target mRNA inhibition (SK-MEL-28, 4 µM)","target mRNA inhibition (MM.1R, 1 µM)",further results
"GAGCAATGAACGGAAG (sugars k3 d10 k3, PS)",72%,,
"CCAAGATCGAGCGGTG (sugars k3 d10 k3, PS)",37%,,
"GCGGACACGCCCGACC (sugars k3 d10 k3, PS)",15%,,
"GTGTAAGGTCTGAGAG (sugars k3 d10 k3, PS)",16%,,
"GACTTAAGCTAAACTC (sugars k3 d10 k3, PS)",58%,,
"TTGCATGGCTAATGAA (sugars k3 d10 k3, PS)",42%,,
"TGTGCTTGCCAAGCCT (sugars kkdddddddddekeke, PS)",,21% and 1%,
"GTTCAAAGCGCACCGC (sugars k3 d10 k3, PS)",65%,,
"GGTTGGCTGGTCTTTG (sugars kkdddddddddkdkdk, PS)",,64%,
"CAAGCAGTGATGTCAG (sugars k2 d9 e3 k2, PS)",,15% and 8%,
"CAGTTGTAAATGAGTC (sugars kkkdddddddddkeke, PS)",,58%,"target mRNA inhibition (MM.1R, 0.074 µM): 21%; target mRNA inhibition (MM.1R, 0.222 µM): 28%; target mRNA inhibition (MM.1R, 0.666 µM): 57%; target mRNA inhibition (MM.1R, 2 µM): 80%"
"GCATAAAAGGTTCCTG (sugars k3 d10 k3, PS)",26%,,
"CGCGACTCTGTCAGTT (sugars k3 d10 k3, PS)",,8%,
"TCTCCCACACCAGCCC (sugars k4 d8 k4, PS)",25%,,
"ACAAAATGGTGTGTAA (sugars k3 d10 k3, PS)",7%,,
"GACAAGAACTGCTGTG (sugars k3 d10 k3, PS)",15%,,
"TTAAGCTAAACTCCTA (sugars k3 d10 k3, PS)",10%,,
"CTAATACCTACCTGCC (sugars k3 d10 k3, PS)",47%,,
"GGAAGTTTACACTGGA (sugars kkddddddddddkeke, PS)",,46%,
"TCCGGCTTGTCGATGC (sugars k3 d10 k3, PS)",41%,,
"AGGAAACTTGGAGCGC (sugars k3 d10 k3, PS)",77%,15%,"target mRNA inhibition (MM.1R, 0.0625 µM): -1%; target mRNA inhibition (MM.1R, 0.25 µM): 2%; target mRNA inhibition (MM.1R, 4 µM): 42%"
"TGGCACAATTCTCTGA (sugars k3 d10 k3, PS)",13%,,
"ATTCAATGCACCCCCC (sugars k3 d10 k3, PS)",,2%,
"GCACTGCATGAAAGTG (sugars k3 d10 k3, PS)",40%,,
"CATTAAAGAGTGGTAC (sugars k3 d10 k3, PS)",-3%,,
"CCCTACCTTTTTTGGC (sugars k3 d10 k3, PS)",,-7%,

Sequence,"target mRNA inhibition (SK-MEL-28, 4 µM)","target mRNA inhibition (MM.1R, 1 µM)",further results
"TCTACAGAACACAAGA (sugars k3 d10 k3, PS)",-8%,,
"AAATTAAAGAGCGCAT (sugars k3 d10 k3, PS)",13%,,
"TGTTCAGAAACCCTCA (sugars k3 d10 k3, PS)",,-15%,
"TATCAGGATCTCAAGG (sugars k3 d10 k3, PS)",6%,,
"ACATTACTGAGATATC (sugars k3 d10 k3, PS)",16%,,
"AGTGAAGTCGGGAGAT (sugars k3 d10 k3, PS)",,8%,
"GATAATATACCCCAAA (sugars k3 d10 k3, PS)",33%,,
"GATAAAGGCTGAACTG (sugars k3 d10 k3, PS)",67%,,
"ACGCACACACAAGTGG (sugars k3 d10 k3, PS)",59%,,
"TAATTTTAAGGCCCTG (sugars k3 d10 k3, PS)",39%,,
"ATATGGCTAAACCTGG (sugars k3 d10 k3, PS)",,18%,
"GAACAAGTGTATCTTT (sugars k3 d10 k3, PS)",,5%,
"TAGGACTAAGGACAGC (sugars k3 d10 k3, PS)",,-5%,
"CGTGTGCTTGCCAAGC (sugars kdddddddddkekeke, PS)",,24% and 11%,
"AGCATAGCATTATCTA (sugars k3 d10 k3, PS)",34%,,
"TGCATCTATAAGATGT (sugars k3 d10 k3, PS)",32%,,
"TAACACGGTGTTGACA (sugars k3 d10 k3, PS)",35%,,
"TGCAAAACCAGTACAG (sugars k3 d10 k3, PS)",28%,,
"GTTGTAGTCCTGCTTG (sugars k3 d10 k3, PS)",22%,,
"CACATAATCCAGTATC (sugars k3 d10 k3, PS)",43%,,
"CTCTATAGTGTTCCAG (sugars kkkdddddddddkeke, PS)",,49%,
"AGATTTACACCGTTGC (sugars k3 d10 k3, PS)",,30%,
"CAACCATTTTCACAAG (sugars k4 d8 k4, PS)",5%,,
"AACTCTGAGTAGACTT (sugars k3 d10 k3, PS)",28%,,
"TATGAGAAACGGCCTG (sugars k3 d10 k3, PS)",45%,,
"CCGGAGGCCGCCGTGA (sugars k3 d10 k3, PS)",13%,,

Sequence,"target mRNA inhibition (SK-MEL-28, 4 µM)","target mRNA inhibition (MM.1R, 1 µM)",further results
"AGTATGAGAAACGGCC (sugars k2 d9 e3 k2, PS)",,16%,
"AGCTTGATAAAGGCTG (sugars k3 d9 k3 e1, PS)",,2%,
"AGAAAGAAGCAAGTCG (sugars k3 d10 k3, PS)",37%,,
"CCCAAGCCTTGAAGAG (sugars k3 d10 k3, PS)",6%,,
"GAATTTACAGCATCTA (sugars k3 d10 k3, PS)",76%,,
"TGGCGAGTGGCGGGTA (sugars k3 d10 k3, PS)",,-18%,
"TGTGATAGCTGAGCTG (sugars kddddddddddkekek, PS)",,-2%,
"GCCCACATAATCCAGT (sugars k3 d10 k3, PS)",22%,,
"CTGCAGGGTAATTTAG (sugars k3 d10 k3, PS)",34%,,
"GCCCGGAGGAAGGGCG (sugars k3 d10 k3, PS)",-6%,,
"ATATATGACGACTTAA (sugars k3 d10 k3, PS)",6%,,
"TTGGCTCCTTTTTTGG (sugars k3 d10 k3, PS)",13%,,
"ATAGGTATACTTAAGC (sugars k3 d10 k3, PS)",80% and 79%,,
"TTAGGCACATCAATGT (sugars k3 d10 k3, PS)",,12% and 17%,
"ATGTGATAGCTGAGCT (sugars kkdddddddddkdkdk, PS)",,27%,
"TGTAGTATGAGAAACG (sugars kkdddddddddkdkdk, PS)",,-6%,
"CTCTATAGTGTTCCAG (sugars kkdddddddddkdkdk, PS)",,31%,
"GAGCTGTGATGAGCTT (sugars k4 d8 k4, PS)",5%,,
"GTTGTAAATGAGTCGG (sugars e1 k2 d9 k2 e2, PS)",,69%,"target mRNA inhibition (MM.1R, 0.074 µM): 17%; target mRNA inhibition (MM.1R, 0.222 µM): 38%; target mRNA inhibition (MM.1R, 0.666 µM): 57%; target mRNA inhibition (MM.1R, 2 µM): 79%"
"GGGAAGTGGACCCCAT (sugars k3 d10 k3, PS)",9%,,
"ACAGATAACGAGGTGC (sugars k3 d10 k3, PS)",30%,,
"ATGAACCCTAAGTTTA (sugars k3 d10 k3, PS)",,-4%,
"AGCTCCTACATACATT (sugars k3 d10 k3, PS)",44%,,
"TCTAACAGATAACGAG (sugars k3 d10 k3, PS)",,-3%,
"TCACGAGCACCTCAGA (sugars k3 d10 k3, PS)",36%,,
"CTGCTCTGGCACAGTC (sugars k3 d10 k3, PS)",83%,,

Sequence,"target mRNA inhibition (SK-MEL-28, 4 µM)","target mRNA inhibition (MM.1R, 1 µM)",further results
"GGTTGGCTGGTCTTTG (sugars kddddddddddkekek, PS)",,47%,
"CCCGGCCGATCATCAA (sugars k3 d10 k3, PS)",,23%,
"TATAGCACTCTCCTAT (sugars k3 d10 k3, PS)",2%,,
"CAGAACGAGGTAAATC (sugars k3 d10 k3, PS)",59%,,
"TGGTAACAATACTGTA (sugars k3 d10 k3, PS)",65%,,
"GTCTATGGGATTATAT (sugars k3 d10 k3, PS)",21%,,
"GGGCCCGTCCCAGTAG (sugars k3 d10 k3, PS)",20%,,
"TCTATAGTGTTCCAGG (sugars k2 d9 e3 k2, PS)",,50%,
"CCCCGAATAGGACCCC (sugars k3 d10 k3, PS)",56%,,
"CTACAAGCAGTCATCA (sugars k3 d10 k3, PS)",44%,,
"ACACTTTTAGAGAGGA (sugars k3 d10 k3, PS)",63%,,"target mRNA inhibition (MM.1R, 0.0625 µM): 32%; target mRNA inhibition (MM.1R, 0.222 µM): 25% and 41%; target mRNA inhibition (MM.1R, 0.25 µM): 41%; target mRNA inhibition (MM.1R, 2 µM): 72% and 89%; target mRNA inhibition (MM.1R, 4 µM): 74%"
"GACGGAGGCGGCAGAC (sugars k3 d10 k3, PS)",-43%,,
"TCTAATAAATGTGCTC (sugars k3 d10 k3, PS)",44%,,
"ACTGTCCACTGAGTAC (sugars k3 d10 k3, PS)",61%,,
"GGATTCCGCGCGCAGA (sugars k3 d10 k3, PS)",,21%,
"ACCTTTTTTGGCTCCC (sugars k4 d8 k4, PS)",19%,,
"TTAGCAATTCCTGTTG (sugars k3 d10 k3, PS)",20%,,
"AAAATATAACGGTGTT (sugars k3 d10 k3, PS)",31%,,
"CATAACACGGTGTTGA (sugars k3 d10 k3, PS)",36%,,
"GACTCCATGAGGTTTT (sugars k3 d10 k3, PS)",70%,,"target mRNA inhibition (SK-MEL-28, 0.185 µM): 14% and 10% and 1%; target mRNA inhibition (SK-MEL-28, 5 µM): 58% and 55% and 77%; target mRNA inhibition (SK-MEL-28, 15 µM): 76% and 78% and 87%"
"TCACACTGCCGTGATC (sugars k3 d10 k3, PS)",22%,,
"CGTATGTCCATGGGAG (sugars k3 d10 k3, PS)",88%,,
"GCATTTTATCATCCGA (sugars kkdddddddddkdkdk, PS)",,16%,

# — the OligoGym collection
